# According to patent US10352938B2, “Macrocyclic HOPO chelators” (LUMIPHORE, INC., priority 2009, dated 2019):
# Key:
# [1] = UV/visible absorption spectroscopy of Eu(III) complexes in TRIS buffer; format: physicochemical
# From the text: Extinction Coefficient. A series of solutions of varied concentrations will be prepared from the solids based on mass and purity. The absorbance of each of these solutions at both 340 nm and at the appropriate acceptor wavelength will be measured and plotted according to Beer's Law (A=εcL where A is absorbance, ε is the extinction coefficient in M^−1 cm^−1, c is concentration, and L is path length in cm) with the fitted linear regression slope equal to […] on a plot of A as a function of C.
# Each of the spectra have absorption maxima around 335-340 nm (FIG. 2). Those bands are composed of two electronic transitions; at higher energy, a purely π-π* transition and, at slightly lower energy (around ca. 320 nm), a π-π* transition with some n-π* character, as evidenced previously from TD-DFT calculations. […] This interaction gives maxima blue-shifting from 341 nm for [Eu(H(2,2)-1,2-HOPO)]^0 to 334 nm for [Eu(H(17O5,2)-1,2-HOPO)]^0 (as low as 332 nm for)[Eu(5LIN^Me-1,2HOPO)2]^0).
# [2] = Luminescence quantum yield, emission and brightness in aqueous 0.1 M TRIS buffer; format: physicochemical
# Description: Quantum Yield. Quantum yield will be measured using established methods. Fluorescence quantum yield Q are measured in diluted solution with an optical density lower than 0.1 using the following equation Qx/Qr=[Ar(λr)/Ax(λx)][nx^2/nr^2][Dx/Dr] were A is the absorbance at the excitation wavelength (λ), n the refractive index and D the integrated luminescence intensity. Subscripts “r” and “x” stand for reference and sample, respectively. References will be a quinine bisulfate in 1N sulfuric acid in aqueous solution (Qt=0.546)^1 and Ru(bpy)3 2C1 complexes in water solution (Qr=0.028)^2 for all complexes. A plot of integrated emission intensity (i.e. Dr) versus absorbance (i.e. Ar(λr)) yields a linear plot with a slope which can be equated to the reference quantum yield Qr. By analogy, for the unknown sample, a plot of integrated emission intensity (i.e. Dx) versus absorbance (i.e. Ax(λx)) yields a linear plot and Qx can then be evaluated. A minimum of at least two independent measurements will be averaged to derive a reliable value.
# [3] = Stability titration (pEu) by competitive batch titration using DTPA; format: physicochemical
# Description: (§1) Stability Titrations. The general procedure used to determine the pEu values of ligands was adapted from an already described study using Gd and are similar to that already reported for other complexes. Different volumes of a standardized DTPA stock solution were added to solutions of constant ligand, metal, and electrolyte concentrations. Concentrations of complexed ligand in each solution were determined by subtracting the remaining luminescence intensity after addition of DTPA to the initial luminescence intensity at identical pH and those concentrations were used as references for the analysis. Stability of compounds towards mM concentrations of EDTA and divalent cations will be assessed by incubation of the proposed molecules at nM concentration at room temperature in aqueous solutions of test ions. Time Resolved Fluorescent signal will be assessed at the outset of experiment and monitored over a minimum of 24 hours to determine signal change.
# [4] = Triplet excited state energy from phosphorescence of Gd complexes at 77K; format: physicochemical; settings: solid matrix (methanol/ethanol 1/4), using the Gd complexes
# Description: Estimation of the energies of the ligand based triplet excited state were determined using the Gd(III) complexes. Gadolinium was chosen because it is a 4f^7 lanthanide cation having a similar 4f electronic configuration and size as the europium cation (4f^6), but lacking an accessible metal based low energy electronic excited state. At room temperature, only a broad weak emission centered between 380-400 nm can be seen for the Gd(III) complexes. […] At 77K, in solid matrix, an emission band at approx. 500 nm can be seen (FIG. 8). This emission, red-shifted compared to the singlet excited state, can be assigned to phosphorescence from the triplet excited state, lower in energy than the singlet excited state observed at room temperature. Selective time gated phosphorescence spectra (delay 0.1 ms) of the gadolinium complexes at 77K are depicted in FIG. 8.
# [5] = Calculation of Eu luminescence parameters (radiative lifetime, rate constants, efficiencies); format: physicochemical
# Description: In this equation, the ηISC ηET term is termed the sensitization efficiency, ηsens (ηsens=ηISC ηET). All the luminescence parameters τR (the pure radiative luminescence lifetime), kR and knR (the radiative and non-radiative constant rate) can be deduced. These parameters were calculated for five of the octadentate complexes and the model complex that present only one species in solution at pH=7.4 and are reported in Table 6.
# [6] = Stability testing in concentrated solutions of divalent cations and EDTA; format: physicochemical; settings: over 24 hrs
# Description: as §1
# Although these conditions represent concentrations that are in excess of those typically encountered in routine commercial use, they are a benchmark used in the high-throughput screening industry to evaluate these types of molecules. For comparison, stability testing of the commercialized Lumi4-Tb compound is shown (FIG. 3, top) and represents the stability benchmark for these types of molecules.
# [7] = Luminescence lifetimes (TRIS buffer, deuterated water, 77K) and inner sphere water number q
# Description: Fluorescent decay signals can be acquired using an IBH DataStation Hub photon counting module and data analysis performed using the commercially available DAS 6 decay analysis software package from HORIBA Jobin Yvon IBH. Goodness of fit will be assessed by minimizing the reduced chi squared function, χ2, and a visual inspection of the weighted residuals. Each trace will use at least 10,000 points and the reported lifetime values result from at least three independent measurements.
# In addition to the steady state emission spectra, the luminescence quantum yields and luminescence lifetimes of the Eu(III) complexes were also measured in aqueous solution with 0.1 M TRIS buffer pH=7.4 and in deuterated solution to estimate the number of inner sphere water molecule (i.e. q) using the improved Horrock's equations.
# Luminescence lifetimes were also determined at 77K, in a solid matrix (Table 5), which have allowed us to determine whether back energy transfer between the donor triplet excited state and the acceptor manifold excited state of the lanthanide is present, or alternately whether quenching via low lying LMCT state occurs.
structure (smiles),measurement,setting,value
O=C(NCCN(CCNC(=O)c1cccc(=O)n1O)CCOCCOCCOCCN(CCNC(=O)c1cccc(=O)n1O)CCNC(=O)c1cccc(=O)n1O)c1cccc(=O)n1O [Eu(H11-3)],ε,[1]; TRIS buffer pH = 7.4,"15,070 M^−1 · cm^−1"
same,λ^maxabs,[1]; TRIS buffer pH = 7.4,334 nm
same,λ,[1]; absorption maximum,334 nm
same,ε,"[1]; extinction coefficient, in M-1·cm-1","15,070"
same,øTot,[2]; 0.1M TRIS buffer pH = 7.4,0.165
same,ϕTot,"[2]; aqueous TRIS pH = 7.4, complexes with only one species",0.165
same,quantum yield in aqueous medium,[2]; aqueous medium,17%
same,ϕTot,[2]; aqueous quantum yield,0.165
same,Brightness,"[2]; at maximum absorption, product of quantum yield and molar absorption coefficient, 0.1 M TRIS pH = 7.4",2485 M⁻¹ cm⁻¹
same,overall quantum yield (in words),[2]; related to inner-sphere coordinated water,comparatively high quantum yields
same,pEu,[3]; competitive batch titration using DTPA in 0.1M TRIS pH = 7.4 and 0.1M KCl,20.4
same,pEu value as compared to DTPA,[3]; in words,increased
same,T0-0 (triplet excited state energy),[4],"22,120 cm^−1"
same,sensitization process efficiency,[5],40.2%
same,η^Eu,[5]; efficiency of metal centred luminescence,0.411
same,knr,[5]; non-radiative rate constant,882 s⁻¹
same,τrad,"[5]; pure radiative luminescence lifetime, aqueous TRIS pH = 7.4",1630 μs
same,kr,[5]; radiative rate constant,615 s⁻¹
same,η^sens,[5]; sensitization efficiency,0.402
same,signal change in concentrated solutions of divalent cations and EDTA,[6],significant signal loss
same,τ,[7]; aqueous TRIS pH = 7.4,668 μs
same,τ^D,"[7]; deuterated solution, first component",888 μs
same,τ^D,"[7]; deuterated water, first component",888 μs
same,τ,[7]; first (longer) component,668 μs
same,q,"[7]; inner sphere water molecules, improved Horrock's equations, first species",0.1
same,τ (77K),"[7]; solid matrix at 77K (methanol/ethanol 1/4), first component",765 μs
